Data taken from PubChem BioAssay AID434951 (Broad Institute, 2010).
The source made the active and inactive calls.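 Rule for the calls: active = a fitted half-maximal concentration EC50 for the rise in nuclear signal no higher than ten times the top dose tested; inconclusive = flat fit with activity between 30% and 70%, or unusable fit; inactive = EC50 beyond ten times the top dose.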

Target: Hypoxia-inducible factor 1-alpha (Homo sapiens) (UniProt Q16665)
Assay: activators of HIF1alpha nuclear accumulation, confirmation, imaging, fluorescence, U2OS GFP-HIF1alpha (AID 434951)
Conditions: U2OS GFP-HIF1alpha nuclear intensity, high-content imaging

Sequence of Hypoxia-inducible factor 1-alpha (Homo sapiens) (Q16665 whole entry, looked up): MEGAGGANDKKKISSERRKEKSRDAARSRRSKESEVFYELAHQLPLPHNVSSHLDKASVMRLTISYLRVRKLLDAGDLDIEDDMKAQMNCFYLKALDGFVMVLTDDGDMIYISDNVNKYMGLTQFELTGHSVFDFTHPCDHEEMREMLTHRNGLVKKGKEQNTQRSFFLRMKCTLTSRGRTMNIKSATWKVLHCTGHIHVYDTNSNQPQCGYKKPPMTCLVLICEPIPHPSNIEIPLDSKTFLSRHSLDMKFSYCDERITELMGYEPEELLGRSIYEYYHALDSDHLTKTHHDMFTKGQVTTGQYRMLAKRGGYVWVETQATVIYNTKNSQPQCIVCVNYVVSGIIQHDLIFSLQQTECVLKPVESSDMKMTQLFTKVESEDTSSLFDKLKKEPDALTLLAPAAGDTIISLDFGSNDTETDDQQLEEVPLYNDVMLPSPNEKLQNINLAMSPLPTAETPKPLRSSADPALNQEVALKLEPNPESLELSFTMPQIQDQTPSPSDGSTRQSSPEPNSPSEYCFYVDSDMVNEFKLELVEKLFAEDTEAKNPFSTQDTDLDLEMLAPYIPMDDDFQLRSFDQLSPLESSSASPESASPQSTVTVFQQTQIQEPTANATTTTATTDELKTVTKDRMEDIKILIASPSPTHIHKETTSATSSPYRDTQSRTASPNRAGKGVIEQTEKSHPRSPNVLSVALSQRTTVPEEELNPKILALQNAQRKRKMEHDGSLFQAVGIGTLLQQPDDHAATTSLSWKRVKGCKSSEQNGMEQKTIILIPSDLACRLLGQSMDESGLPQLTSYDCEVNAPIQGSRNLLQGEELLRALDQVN

Compound | EC50
O=C(CN1CCCC1)N/N=C/c1c(O)ccc2ccccc12 | 8.15 µM
O=C(N/N=C/c1cc(Br)ccc1OC(=O)c1ccc(Br)cc1)c1ccncc1 | > 35 µM (inactive)
CCOC(=O)CNC(=O)CSc1nnc(Cn2cnc3ccccc32)n1C | > 35 µM (inactive)
Cc1oc(-c2ccc(Cl)cc2)cc1C(=O)/C(C#N)=C/Nc1cccc(OC(F)(F)F)c1 | > 35 µM (inactive)
Cc1ccc(CN2[C@@H](CC(C)C)COCCS2(=O)=O)cc1 | > 35 µM (inactive)
COc1ccc(NC(=O)CSc2nc3c(c(=O)[nH]2)CCC3)cc1OC | > 35 µM (inactive)
COc1cc(CC(=O)Nc2ccc(Cl)c(C(F)(F)F)c2)cc(OC)c1OC | > 35 µM (inactive)
Cn1cccc1C(=O)NC(=O)COC(=O)c1cc(S(=O)(=O)N2CCCCC2)ccc1Cl | > 35 µM (inactive)
COc1cccc(/C=N/Nc2nccnc2Cl)c1O | 6.36 µM
Cc1cccc(CCNC(=O)Cn2ncc3c([nH]c4ccc(C)cc43)c2=O)c1 | > 35 µM (inactive)
Cc1ccc(O)c(NC(=O)c2ccc3c(c2)C(=O)N(Cc2ccco2)C3=O)c1 | > 35 µM (inactive)
COc1cccc(/C=N/Nc2cc(-n3nc(C)cc3-c3ccccc3)ncn2)c1O | 12.5 µM
CCOC(=O)N1CCC(Nc2c(-c3ccccc3)c(=O)c2=O)CC1 | > 35 µM (inactive)
COc1ccc(C2NC(=S)NC3=C2CCCC3=C2SCCS2)cc1 (centres undefined) | 17.8 µM
COCCn1c(=NC(=O)c2ccc(S(=O)(=O)N3CCCc4ccccc43)cc2)sc2cc(S(C)(=O)=O)ccc21 | > 35 µM (inactive)
CCCOc1cccc(C2C(C(=O)c3ccco3)=C(O)C(=O)N2CCCn2ccnc2)c1 (centres undefined) | > 35 µM (inactive)
Brc1ccc(N/N=C(/N=Nc2nn[nH]n2)c2ccccc2)cc1 | 5.73 µM
CC(C)Sc1nc(N)c2c3c(sc2n1)CN(C)CC3 | > 35 µM (inactive)
Cc1cc(C)nc(Sc2ncnc(N)c2[N+](=O)[O-])n1 | 20.6 µM
CCN(CC)CCC(=O)Nc1cccc2c1C(=O)c1ccccc1C2=O | > 35 µM (inactive)
CCN(C(=O)CSc1ncn[nH]1)C1CCCCC1 | > 35 µM (inactive)
Cc1cccc(NC(=O)COc2cccc3c2CCN(C)C3=O)c1C | > 35 µM (inactive)
COc1ccc(/C=N/NC(=O)c2nc(-c3ccccc3)n(-c3ccccc3)n2)c(O)c1 | 25.4 µM
COc1ccc(Cc2nnc(SCC(=O)NC3CCCCC3)n2C)cc1 | > 35 µM (inactive)
CNc1nc(-c2ccccn2)nnc1-c1ccccc1 | 7.4 µM
CN(C(=O)COC(=O)c1ccc(F)c(S(=O)(=O)N2CCOCC2)c1)C1CCS(=O)(=O)C1 (centres undefined) | > 35 µM (inactive)

Compound | EC50
O=C1CC(Nc2ccccc2)C(=O)N1Cc1ccccc1 (centres undefined) | > 35 µM (inactive)
Oc1ccc(Cl)cc1CNCC1CCCO1 (centres undefined) | > 35 µM (inactive)
CC(Sc1nnc(COc2ccc([N+](=O)[O-])cc2)n1C)C(=O)O (centres undefined) | > 35 µM (inactive)
CC(C)(C)c1csc(NNC(=O)c2ccc(Br)cc2)n1 | 29 µM
Cc1ccc(C)c(OCC(=O)N2CCN(Cc3ccc4c(c3)OCO4)CC2)c1 | > 35 µM (inactive)
CCOC(=O)c1cnc(-n2nc(C)cc2C)nc1NNc1nc(-c2ccccc2)cc(-c2ccccc2)n1 | 1.81 µM
Cc1cc(C)[n+](Cc2ccccc2)cc1C(N)=O | > 35 µM (inactive)
CCCCC(=O)NC(c1ccc(Cl)cc1)c1ccc2cccnc2c1O (centres undefined) | 1.66 µM
Cc1nnsc1C(=O)N/N=C/c1ccc2ccccc2c1O | 3.13 µM
O=C(CSc1nnc(-c2ccco2)n1Cc1ccco1)NCc1ccccc1 | > 35 µM (inactive)
CCC/C(O)=C1\C(=O)CC(C)(C)CC1=NCc1ccccc1 | > 35 µM (inactive)
FC(F)(F)c1ccc(-c2nc(=S)[nH][nH]2)cc1 | > 35 µM (inactive)
O=C(NCC1CCCO1)c1cc(-c2ccccc2F)no1 (centres undefined) | 21.7 µM
N#Cc1ccccc1S(=O)(=O)N1CCN(c2cnccn2)CC1 | > 35 µM (inactive)
CCn1c(SCC(=O)Nc2nncs2)nnc1-c1ccco1 | > 35 µM (inactive)
Cn1c(NN=O)nc2ccccc21 | 9.61 µM
CCOP(=O)(C#CC(C)(C)C)C1(O)CCCCC1 (centres undefined) | > 35 µM (inactive)
Cc1ccnc(NS(=O)(=O)c2cc([N+](=O)[O-])ccc2C)c1 | > 35 µM (inactive)
Nc1ccc(C(=O)N/N=C\c2cc(N=Nc3cccc4ccccc34)ccc2O)cc1 | 35.8 µM
CN(C)/N=C/C=C1\CCC/C(=C/c2cccs2)C1=O | > 35 µM (inactive)
Cc1ccc(-c2nnc(Sc3nc4ccccc4o3)c3ccccc23)cc1 | 16.9 µM
CCN(CC)c1ccc(/C=N/NC(=O)c2ccoc2C)c(O)c1 | 10.9 µM
COc1ccc(S(=O)(=O)N2CCOC2CNC(=O)C(=O)NCc2ccc3c(c2)OCO3)cc1OC (centres undefined) | > 35 µM (inactive)
COc1ccc(OC)c2[nH]c(C(=O)N/N=C/c3ccccc3O)cc12 | 6.61 µM
CCN(CC)c1ccc(/C=N/NC(=O)c2cnccn2)c(O)c1 | 9.54 µM
CCOc1cc(/C=N/NC(=O)c2c(-c3ccccc3)noc2C)ccc1O | > 35 µM (inactive)

Compound | EC50
O=C(CSc1c[nH]c2ccccc12)NCc1ccc2c(c1)OCO2 | > 35 µM (inactive)
Cc1onc(-c2ccccc2)c1NC(=O)N(Cc1ccccc1)C(C)C | > 35 µM (inactive)
O=C(CC1SC(N2CCCC2)=NC1=O)Nc1ccc(C(=O)Nc2ncccc2O)cc1 (centres undefined) | 29.7 µM
CC(Oc1ccc2ccc(=O)oc2c1)C(=O)NCCN1CCOCC1 (centres undefined) | > 35 µM (inactive)
O=C(/C=C/c1ccccc1)NCCc1nc2ccccc2[nH]1 | > 35 µM (inactive)
COc1ccccc1C/C(N)=N/O | > 35 µM (inactive)
COc1cccc2sc(N3CCN(C(=O)c4ccc([N+](=O)[O-])o4)CC3)nc12 | > 35 µM (inactive)
COc1cccc(C(=O)CN2C(=O)C(C)(C)Oc3ccc(C(=O)N4CCOCC4)cc32)c1 | > 35 µM (inactive)
CCCCn1c(=O)[nH]c(=O)c2c(C(=O)OCC)cc(-c3cccs3)nc21 | > 35 µM (inactive)
CCCCCCCC1CC(=O)C=C(C)C1C(=O)OCC (centres undefined) | > 35 µM (inactive)
CCc1cnccc1CCC(=O)Nc1ccccc1C | > 35 µM (inactive)
CC(=O)N1c2ccc(S(=O)(=O)NCCc3ccccc3)cc2CC1C (centres undefined) | > 35 µM (inactive)
CCOc1cc(/C=N/NC(=O)c2cccnc2)ccc1OCc1ccc(C(=O)OC)o1 | > 35 µM (inactive)
c1ccc(Cc2nnc(-c3ccccc3)o2)cc1 | 17.7 µM
CN(C)C=NC(=O)c1cn(-c2ccc(F)cc2)c(=O)c2ccccc12 | > 35 µM (inactive)
O=C(COc1ccc(Cl)cc1Cl)N/N=C/CCc1ccccc1 | > 35 µM (inactive)
N#CCC(=O)N/N=C/c1ccc(SCC(=O)Nc2ccccc2)o1 | > 35 µM (inactive)
CC(=O)c1cccc(NC(=O)CSC(=O)c2ccccc2)c1 | > 35 µM (inactive)
C/C(=C\C(=O)OCC(=O)NCc1ccccc1)C(=O)OCC(=O)NCc1ccccc1 | > 35 µM (inactive)
N#Cc1ccccc1OCCCN1CCC(Cc2ccccc2)CC1 | > 35 µM (inactive)
c1cnc(N2CCN(c3ccc4ccccc4n3)CC2)nc1 | > 35 µM (inactive)
CCOc1ccccc1N1CCN(C(=S)NC(=O)C23CC4CC(CC(C4)C2)C3)CC1 | > 35 µM (inactive)
COc1cccc(/C=N/NC(=O)CNC(=O)C(c2ccccc2)c2ccccc2)c1O | > 35 µM (inactive)
Cc1ccc(Oc2ncc(CN3CC(C)OC(C)C3)s2)cc1 (centres undefined) | > 35 µM (inactive)
O=C(NNC(=S)Nc1ccc(Cl)c(Cl)c1)c1ccccn1 | 6.71 µM
O=C(CSc1nnc(-c2ccccc2Cl)o1)N1CCOCC1 | > 35 µM (inactive)

Compound | EC50
Cc1c(Cl)c([N+](=O)[O-])nn1Cc1ccc(C(=O)N/N=C\c2cc(Cl)ccc2O)o1 | 9.26 µM
NC(=O)c1sc2nccc(Nc3ccccc3)c2c1N | > 35 µM (inactive)
CCOC(=O)c1c(-c2ccccc2)oc2cc(CN(C)C)c(O)c(CN(C)C)c12 | 5.53 µM
O=C(c1ccc(-c2nnc(-c3ccccc3)o2)cc1)N1CCCCCC1 | > 35 µM (inactive)
CC(C)C(=O)NC(c1cccc([N+](=O)[O-])c1)c1ccc2cccnc2c1O (centres undefined) | 2.3 µM
COc1ccc(OC)c(CNC(=O)C2CCCN(S(=O)(=O)N3CCC(C)CC3)C2)c1 (centres undefined) | > 35 µM (inactive)
CCCC1CCC(=C(C#N)C(N)=O)CC1 (centres undefined) | > 35 µM (inactive)
Oc1ccccc1/C=N/Nc1ncc(Br)cn1 | 13.4 µM
CCN(CC)S(=O)(=O)c1ccc(N/N=C/c2cc(OC)ccc2O)nc1 | 4.31 µM
CN(Cc1cccs1)C(=O)CSc1nc(N)cc(N)n1 | > 35 µM (inactive)
Oc1ccccc1C(Nc1nccs1)c1ccc2cccnc2c1O (centres undefined) | 6.57 µM
COc1ccc(C(NC(=O)C(C)C)c2ccc3cccnc3c2O)cc1 (centres undefined) | 2.66 µM
COC(=O)c1cc(S(=O)(=O)NCc2ccccc2OC)cn1C | > 35 µM (inactive)
O=C(O)c1ccc2cccc(O)c2n1 | > 35 µM (inactive)
Cc1cc(=O)[nH]c(SCC(=O)Nc2nonc2C)n1 | > 35 µM (inactive)
CCN1CCN(c2ccc([N+](=O)[O-])cc2C=C2C(=O)NC(=O)NC2=O)CC1 | > 35 µM (inactive)
COC(=O)c1ccc(CSc2nc3c(c(=O)n2-c2ccc(F)cc2)SCC3)o1 | > 35 µM (inactive)
CC1CCN(C(=O)CS(=O)(=O)Cc2ccccc2)CC1 | > 35 µM (inactive)
COc1ccc(CNS(=O)(=O)c2cc3c4c(c2)C(C)C(=O)N4CCC3)cc1 (centres undefined) | > 35 µM (inactive)
O=C1CCCN2N=C(SCC(=O)Nc3ccc(Br)cc3)SC2=N1 | 26.7 µM
O=C(NS(=O)(=O)c1ccc2c(c1)OCCO2)c1ccccc1 | > 35 µM (inactive)
COc1ccc(N/C=C\C(=O)c2ccc3c(c2)OCO3)cc1 | > 35 µM (inactive)
C[C@@H]1O[C@@H](OC[C@H]2O[C@@H](Oc3c(-c4ccc(O)cc4)oc4cc(O)cc(O)c4c3=O)[C@H](O)[C@@H](O)[C@@H]2O)[C@H](O)[C@H](O)[C@H]1O | > 35 µM (inactive)
Oc1ccc2ccccc2c1/C=N/Nc1nnc(-c2ncc[nH]2)c2ccccc12 | 8.6 µM
Oc1ccc(CCNc2c3ccccc3nc3ccccc23)cc1O | > 35 µM (inactive)
FC(F)(F)c1ccc(CSc2ccccn2)cc1 | > 35 µM (inactive)
